ChEMBL document CHEMBL3886580, “B-RAF kinase inhibitors” (2016)
pIC50: −log10 of the molar value.

The molecules below were run against Serine/threonine-protein kinase B-raf (Homo sapiens, UniProt P15056, V600E) (assay: B-RAF (V600E) Kinase Assay: In a dilution series 10 uL/well of test substance solution are placed in a multiwell plate. The dilution series is selected so that generally a range of concentrations of 2 uM to 0.119 nM or 0.017 nM is covered. If necessary the initial concentration of 2 uM is changed to 50 uM, 10 uM or 0.4 uM or 0.2857 uM and further dilution is carried out accordingly. The final concentration of DMSO is 5%. 10 uL/well of the B-Raf (V600E)-kinase solution are pipetted in (containing 0.5 ng B-Raf (V600E)-kinase (e.g. from Upstate) in 20 mM Tris-HCl pH 7.5, 0.1 mM EDTA, 0.1 mM EGTA, 0.286 mM sodium orthovanadate, 10% glycerol, 1 mg/mL bovine serum albumin, 1 mM dithiothreitol) and the mixture is incubated for 1 h at RT under with shaking. The kinase reaction is started by the addition of 20 uL/well ATP solution [final concentration: 250 uM ATP, 30 mM Tris-HCl pH 7.5, 0.02% Brij, 0.2 mM sodium orthovanadate, 10 mM magnesium acetate, 0.1 mM EGTA, phosphatase cocktail (Sigma, #P2850, dilution recommended by the manufacturer)] and 10 uL/well MEK1 solution [containing 50 ng biotinylated MEK1 (prepared from purified MEK1 according to standard procedure, e.g. with EZ-Link Sulpho-NHS-LC-Biotin reagent, Pierce, #21335)] and carried out for 60 min at RT with constant shaking. The reaction is stopped by the addition of 12 uL/well of a 100 mM EDTA solution and incubation is continued for a further 5 min. 55 uL/well of the reaction solution are transferred into a streptavidin-coated plate (e.g. Streptawell HighBond, Roche, #11989685001) and shaken gently for 1 h at RT, in order to bind biotinylated MEK1 to the plate. After elimination of the liquid the plate is washed five times with 200 uL/well of 1ÿPBS and 100 uL/well solution of primary antibody plus europium-labelled secondary antibody [Anti Phospho-MEK (Ser217/221), Cell Signaling, #9121 and Eu-N1 labelled goat-anti-rabbit antibody, Perkin Elmer, #AD0105] is added, the primary antibody is diluted 1:2000 and the secondary antibody is diluted to 0.4-0.5 ug/mL in Delfia Assay Buffer (Perkin Elmer, #1244-111). After 1 h shaking at RT the solution is poured away and washed five times with 200 uL/well Delfia Wash Buffer (Perkin Elmer, #4010-0010/#1244-114). After the addition of 200 uL/well Enhancement Solution (Perkin Elmer, #4001-0010/#1244-105) the mixture is shaken for 10 min at RT and then measured in a Wallac Victor using the program "Delfia Time Resolved Fluorescence (Europium)". IC50 values are obtained from these dosage-activity curves using a software program (GraphPadPrizm).).
Chain of Serine/threonine-protein kinase B-raf (P15056 2-766 V600E limits assumed): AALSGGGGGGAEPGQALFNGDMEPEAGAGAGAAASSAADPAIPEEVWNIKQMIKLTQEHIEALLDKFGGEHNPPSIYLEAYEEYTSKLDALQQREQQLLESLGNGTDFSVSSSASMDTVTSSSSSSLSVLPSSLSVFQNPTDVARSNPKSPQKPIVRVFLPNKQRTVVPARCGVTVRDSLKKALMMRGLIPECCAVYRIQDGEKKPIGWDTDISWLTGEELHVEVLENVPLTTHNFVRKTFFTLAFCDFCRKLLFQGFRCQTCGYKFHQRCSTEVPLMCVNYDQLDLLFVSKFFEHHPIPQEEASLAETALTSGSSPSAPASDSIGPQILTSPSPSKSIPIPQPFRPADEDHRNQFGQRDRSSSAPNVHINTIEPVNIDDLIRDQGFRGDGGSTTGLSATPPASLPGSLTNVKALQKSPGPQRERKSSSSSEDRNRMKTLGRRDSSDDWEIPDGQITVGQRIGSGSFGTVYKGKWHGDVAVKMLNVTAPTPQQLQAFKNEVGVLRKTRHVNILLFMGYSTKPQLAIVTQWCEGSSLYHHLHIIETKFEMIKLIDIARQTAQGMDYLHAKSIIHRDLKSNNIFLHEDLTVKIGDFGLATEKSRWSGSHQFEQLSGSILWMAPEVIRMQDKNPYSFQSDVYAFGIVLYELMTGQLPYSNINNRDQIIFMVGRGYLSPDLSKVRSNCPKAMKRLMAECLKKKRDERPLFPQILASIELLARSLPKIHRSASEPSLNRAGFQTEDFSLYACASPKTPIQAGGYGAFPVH

SMILES | pIC50
Cc1ccc(NC(=O)c2ccc(C(C)(C)C)s2)cc1-n1cc(-c2cncc(N3CCN(C)CC3)c2)nn1 | 8.22
Cc1ccc(NC(=O)c2ccc(C(C)(C)C)s2)cc1-n1cc(-c2cncc(N3CCNCC3)c2)nn1 | 8.40
CCN1CCN(c2cncc(-c3cn(-c4cc(C(=O)Nc5cc(C(C)(C)C)on5)ccc4C)nn3)c2)CC1C (stereo not given) | 7.96

Continued, values first:

pIC50 | SMILES
7.74 | Cc1ccc(NC(=O)c2ccc(C(C)(C)C)s2)cc1-n1cc(-c2cncc(N3CCN(CC(C)C)CC3)c2)nn1
7.89 | C=CCN1CCN(c2cncc(-c3cn(-c4cc(NC(=O)c5ccc(C(C)(C)C)s5)ccc4C)nn3)c2)CC1
